This passage reports IC50 results from patent US12331054B2, “Perk inhibiting imidazolopyrazine compounds” (HiberCell, Inc., priority 2019, dated 2025).

Assay [1] concerns eIF2α in HEK293-EGFP-eIF2α cells. Briefly: PERK Cellular Assay (HEK293-EGFP-eIF2α cells, tunicamycin-induced ER stress, TR-FRET). To be noted: tunicamycin 2 hours. The format is cell-based. An outline of the steps: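 After 2 h tunicamycin ([…]) stress following 30 min compound pretreatment at 37 °C, lysed HEK293-EGFP-eIF2α cells were read by TR-FRET. IC50 derived by 4-parameter logistic fitting of percent inhibition, DMSO-normalized, from 10-point 3-fold dilutions.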
(TR-FRET usually uses a lanthanide donor and a delayed reading to cut background.)

Assay [2] deals with Recombinant human EIF2AK3 (PERK) catalytic domain (amino acids 536-1116) (Homo sapiens (Human), UniProt Q9NZJ5). Kind of assay: PERK In Vitro Activity Assay (isolated), TR-FRET kinase assay. Conditions: isolated PERK enzyme, 1.5 μM ATP, read-out: Biochemical IC50. A digest of the protocol: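 IC50 values come from 4-parameter logistic fits of TR-FRET ratios, read after 90 min with 2 nM terbium-labelled phospho-eIF2a antibody following an EDTA stop (10 mM final). The kinase reaction ran 45 min at room temperature, started by adding PERK catalytic domain to 100–200 nM GFP-eIF2a in HEPES pH 7.5 buffer with MgCl2, EGTA and Brij-35.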
Recombinant human EIF2AK3 (PERK) catalytic domain (amino acids 536-1116), sequence (Q9NZJ5 536-1116): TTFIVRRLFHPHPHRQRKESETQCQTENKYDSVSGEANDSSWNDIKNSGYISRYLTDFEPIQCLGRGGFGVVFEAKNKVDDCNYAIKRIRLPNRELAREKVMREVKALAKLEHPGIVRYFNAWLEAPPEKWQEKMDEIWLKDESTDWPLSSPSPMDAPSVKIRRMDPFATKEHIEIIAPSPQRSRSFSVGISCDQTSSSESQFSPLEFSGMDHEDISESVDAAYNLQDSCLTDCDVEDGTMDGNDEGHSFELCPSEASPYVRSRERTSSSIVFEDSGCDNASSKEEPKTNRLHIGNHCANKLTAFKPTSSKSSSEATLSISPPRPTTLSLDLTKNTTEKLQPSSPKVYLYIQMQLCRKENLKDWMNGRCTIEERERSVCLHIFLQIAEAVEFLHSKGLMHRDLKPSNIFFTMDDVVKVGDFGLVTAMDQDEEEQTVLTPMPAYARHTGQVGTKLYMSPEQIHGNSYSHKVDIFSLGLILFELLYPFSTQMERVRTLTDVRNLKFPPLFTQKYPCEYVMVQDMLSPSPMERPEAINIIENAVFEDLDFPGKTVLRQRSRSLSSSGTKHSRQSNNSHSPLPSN

For `[2H]C([2H])([2H])c1nc(-c2ccc(NC(=O)C(O)c3cccc(F)c3)nc2C)c2c(N)ncc(C)n12` (stereo not shown) [Example 173, N-[5-[8-amino-5-methyl-3-(trideuteriomethyl)imidazo[1,5-a]pyrazin-1-yl]-6-methyl-2-pyridyl]-2-(3-fluorophenyl)-2-hydroxy-acetamide], the IC50 – broadly, the point on the concentration scale where inhibition reaches its midpoint – in assay [1] was 26 to 50 nM; in assay [2], 1 to 25 nM.
The corresponding values for `[2H]C([2H])([2H])c1nc(-c2ccc(NC(=O)C(O)c3cccc(C(F)(F)F)c3)nc2C)c2c(N)ncc(C)n12` (stereo not shown) [Example 174, N-[5-[8-amino-5-methyl-3-(trideuteriomethyl)imidazo[1,5-a]pyrazin-1-yl]-6-methyl-2-pyridyl]-2-hydroxy-2-[3-(trifluoromethyl)phenyl]acetamide] are 26 to 50 nM and 1 to 25 nM.
Turning to `[2H]C([2H])([2H])c1nc(-c2ccc(NC(=O)C(O)c3cccc(C(F)(F)F)c3)nc2C)c2c(N)ncc(C)n12` (stereo not shown) [Example 175, N-[5-[8-amino-5-methyl-3-(trideuteriomethyl)imidazo[1,5-a]pyrazin-1-yl]-6-methyl-2-pyridyl]-2-hydroxy-2-[3-(trifluoromethyl)phenyl]acetamide], the IC50 in assay [1] lay within 101 to 250 nM; in assay [2], 1 to 25 nM.
For `[2H]C([2H])([2H])c1nc(-c2ccc(NC(=O)C(O)c3cccc(C(F)(F)F)c3)nc2C)c2c(N)nc(C)cn12` (stereo not shown) [Example 176, N-[5-[8-amino-6-methyl-3-(trideuteriomethyl)imidazo[1,5-a]pyrazin-1-yl]-6-methyl-2-pyridyl]-2-hydroxy-2-[3-(trifluoromethyl)phenyl]acetamide] the same measures were 51 to 100 nM and 1 to 25 nM.
The corresponding values for `[2H]C([2H])([2H])c1nc(-c2ccc(NC(=O)C(O)c3cccc(C(F)(F)F)c3)nc2C)c2c(N)nc(C)cn12` (stereo not shown) [Example 177, N-[5-[8-amino-6-methyl-3-(trideuteriomethyl)imidazo[1,5-a]pyrazin-1-yl]-6-methyl-2-pyridyl]-2-hydroxy-2-[3-(trifluoromethyl)phenyl]acetamide] are 501 to 1000 nM and 101 to 250 nM.
The corresponding values for `[2H]C([2H])([2H])c1nc(-c2cnc(NC(=O)C(O)c3cccc(F)c3)cc2C)c2c(N)nc(C)cn12` (stereo not shown) [Example 178, N-[5-[8-amino-6-methyl-3-(trideuteriomethyl)imidazo[1,5-a]pyrazin-1-yl]-4-methyl-2-pyridyl]-2-(3-fluorophenyl)-2-hydroxy-acetamide] are 4000 to 5000 nM and 251 to 500 nM.
For `[2H]C([2H])([2H])c1nc(-c2cnc(NC(=O)C(O)c3cccc(F)c3)cc2C)c2c(N)nc(C)cn12` (stereo not shown) [Example 179, N-[5-[8-amino-6-methyl-3-(trideuteriomethyl)imidazo[1,5-a]pyrazin-1-yl]-4-methyl-2-pyridyl]-2-(3-fluorophenyl)-2-hydroxy-acetamide], the figures for the IC50 in assay [1] and in assay [2] were 251 to 500 nM and 1 to 25 nM, respectively.
The corresponding values for `[2H]C([2H])([2H])c1nc(-c2cnc(NC(=O)C(O)c3cccc(F)c3)cc2C)c2c(N)ncc(C)n12` (stereo not shown) [Example 180, N-[5-[8-amino-5-methyl-3-(trideuteriomethyl)imidazo[1,5-a]pyrazin-1-yl]-4-methyl-2-pyridyl]-2-(3-fluorophenyl)-2-hydroxy-acetamide] are 501 to 1000 nM and 26 to 50 nM.
For `[2H]C([2H])([2H])c1nc(-c2cnc(NC(=O)C(O)c3cccc(F)c3)cc2C)c2c(N)ncc(C)n12` (stereo not shown) [Example 181, N-[5-[8-amino-5-methyl-3-(trideuteriomethyl)imidazo[1,5-a]pyrazin-1-yl]-4-methyl-2-pyridyl]-2-(3-fluorophenyl)-2-hydroxy-acetamide] the same measures were 26 to 50 nM and 1 to 25 nM.
Consider `[2H]C([2H])([2H])c1nc(-c2cnc(NC(=O)C(O)c3cccc(C(F)(F)F)c3)cc2C)c2c(N)nc(C)cn12` (stereo not shown) [Example 182, N-[5-[8-amino-6-methyl-3-(trideuteriomethyl)imidazo[1,5-a]pyrazin-1-yl]-4-methyl-2-pyridyl]-2-hydroxy-2-[3-(trifluoromethyl)phenyl]acetamide], for which the IC50 was in the range of 101 to 250 nM in assay [1] and 1 to 25 nM in assay [2].
The corresponding values for `[2H]C([2H])([2H])c1nc(-c2cnc(NC(=O)C(O)c3cccc(C(F)(F)F)c3)cc2C)c2c(N)nc(C)cn12` (stereo not shown) [Example 183, N-[5-[8-amino-6-methyl-3-(trideuteriomethyl)imidazo[1,5-a]pyrazin-1-yl]-4-methyl-2-pyridyl]-2-hydroxy-2-[3-(tnfluoromethyl)phenyl]acetamide] are 2000 to 3000 nM and 251 to 500 nM.
